Patent US12109207B2, “Methods of using 4(1H)-quinolone derivatives” (Academia Sinica, priority 2019, dated 2024)
Like-named read-outs stand apart in the source and are kept apart here.

What was measured:
[1] = system: H1975 cells; test: Cell cytotoxicity assay (MTS), H1975; format: cell-based, human; conditions: Homo sapiens, read-out: IC50
Experimental: (§1) Cells were seeded into the wells of 96-well plates (2000 cells/well). After an overnight culture, the cells were treated with different concentrations of a compound for 72 h. The CellTiter 96 AQueous one-solution cell proliferation assay (MTS) reagent was used to determine cytotoxicity. After treatment with a compound, 20 μL of the MTS reagent was added to each well and the plates were incubated at 37° C. for 1-4 h. Next, the absorbance at 490 nm of the culture medium in each well was determined using a VersaMax microplate reader (Molecular Devices).

[2] = system: BT-549; test: Cell cytotoxicity assay (MTS), BT-549; format: cell-based; conditions: Homo sapiens, BT-549, 72 h
Experimental: as §1

[3] = system: Hs578t; test: Cell cytotoxicity assay (MTS), Hs578t; format: cell-based; conditions: Homo sapiens, Hs-578T, 72 h
Experimental: as §1

[4] = system: MDA-MB-231; test: Cell cytotoxicity assay (MTS), MDA-MB-231; format: cell-based; conditions: Homo sapiens, MDA-MB-231, 72 h
Experimental: as §1

[5] = system: 37T; test: Cell cytotoxicity assay (MTS), 37T; format: cell-based; conditions: Homo sapiens, 72 h
Experimental: as §1

[6] = system: 82T; test: Cell cytotoxicity assay (MTS), 82T; format: cell-based; conditions: Homo sapiens, 72 h
Experimental: as §1

[7] = system: KB; test: Cell cytotoxicity assay (MTS), KB; format: cell-based; conditions: Homo sapiens
Experimental: as §1

[8] = system: CCRF-CEM; test: Cell cytotoxicity assay (MTS), CCRF-CEM; format: cell-based; conditions: Homo sapiens
Experimental: as §1

[9] = system: human fibroblast (HFB) cells; test: Cell cytotoxicity assay (MTS), human fibroblast; format: cell-based; conditions: normal cell line HFB
Experimental: as §1

[10] = system: KBtax; test: Cell cytotoxicity assay (MTS), KBtax; format: cell-based, human
Experimental: as §1

[11] = system: KBvin; test: Cell cytotoxicity assay (MTS), KBvin; format: cell-based, human
Experimental: as §1

[12] = system: CEM/VBL; test: Cell cytotoxicity assay (MTS), CEM/VBL; format: cell-based, human
Experimental: as §1

[13] = system: HDQP1; test: Cell cytotoxicity assay, HDQP1; format: cell-based; conditions: Homo sapiens, HDQ-P1; TNBC cell line HDQP1
Experimental: as §1

[14] = system: HDQP1/TAX; test: Cell cytotoxicity assay, HDQP1/TAX; format: cell-based, human
Experimental: as §1

[15] = system: TNBC cell lines; test: Cytotoxicity against triple-negative breast cancer cell lines; format: cell-based; conditions: Homo sapiens; BT-549, Hs578t, MDA-MB-231, 37T, 82T; 72 h MTS; read-out: IC50 values in different TNBC cell lines
Experimental: as §1

[16] = system: H1975 xenograft tumor; test: H1975 xenograft tumor model; format: in vivo, BALB/c nude mice; conditions: day 21
Experimental: (§2) Using the H1975, MDA-MB-231, and KBtax xenograft models, tumors were established after inoculation into the right flanks of 6-week-old BALB/c nude mice (NARLabs, Taipei, Taiwan). After establishment of the tumors, vehicle and test compounds, which had been dissolved in DMSO, were each injected intraperitoneally into a separate group of animals three times per week. The body mass of each animal and tumor volumes were measured before each drug delivery. Tumor volume was calculated as 0.5W^2L (with W being the width of the smaller diameter and L being the length of the larger diameter). The animal experiment was carried out in accordance with the procedures and guidelines of the Institutional Animal Care and Use Committee, Institute of Biomedical Sciences, Academia Sinica.

[17] = system: MDA-MB-231 xenograft tumors; test: MDA-MB-231 xenograft tumor model; format: in vivo, BALB/c nude mice; conditions: day 35
Experimental: as §2

[18] = system: KBtax xenograft tumors; test: KBtax xenograft tumor model; format: in vivo, BALB/c nude mice
Experimental: as §2

[19] = biological target: T1, Purified porcine tubulin (Sus scrofa, UniProt P02554); test: In vitro tubulin polymerization assay; format: biochemical; conditions: 5 μM, A340 every min for 1 h at 37° C.
T1 construct: purchased Cytoskeleton
Experimental: Reagents from a Tubulin Polymerization Assay kit (Cytoskeleton) were used according to the manufacturer's instructions. Purified porcine tubulin (4 mg/mL; >99% purity) in G-PEM buffer (80 mM PIPES, 2 mM MgCl2, 0.5 mM EGTA, 1 mM GTP, 15% glycerol, pH 6.9) was mixed with each test compound in the wells of a 96-well plate. Then, the A340 value was recorded each minute for 1 h at 37° C. with the VersaMax microplate reader.

[20] = biological target: T2, P-gp (Homo sapiens, UniProt P08183); test: Rhodamine efflux assay; format: cell-based; conditions: KBtax cells
T2 construct: KBtax, KBvin, and CEM/VBL cancer cell lines, which overexpress P-gp; endogenous in cells; host or cells: KBtax cells (paclitaxel-selected subline of human KB)
Experimental: KBtax cells (2.5×10^5/test) were collected and held on ice for 1 h in cold medium with […] rhodamine. Then, the cells were resuspended in medium warmed to 37° C. with one of the indicated compounds and incubated for 1 h in a water bath at the same temperature for efflux determination. The fluorescence intensities were quantified by FACSCanto flow cytometry.

[21] = Body mass and serum biochemical markers, H1975 xenograft mice; format: in vivo, BALB/c nude mice; conditions: 4 or 8 mg/kg i.p. three times a week, end of experiment
Experimental: as §2

[22] = Body mass and serum biochemical markers, KBtax xenograft mice; format: in vivo, BALB/c nude mice
Experimental: The body mass of each animal and tumor volumes were measured before each drug delivery. Tumor volume was calculated as 0.5W^2L (with W being the width of the smaller diameter and L being the length of the larger diameter). The animal experiment was carried out in accordance with the procedures and guidelines of the Institutional Animal Care and Use Committee, Institute of Biomedical Sciences, Academia Sinica.

[23] = Body mass, MDA-MB-231 xenograft mice; format: in vivo, BALB/c nude mice; conditions: 4 or 8 mg/kg i.p. three times a week, 35 days
Experimental: as §2

[24] = system: P-gp expression; test: P-gp expression immunoblotting in KBtax cells; format: cell-based, human; conditions: 24 h
Experimental: The cells were harvested and lysed in RIPA buffer (20 mM Tris-HCl, 150 mM NaCl, 1 mM Na2EDTA, 1% sodium deoxycholate, 1% IGEPAL CA-630, 0.1% SDS, pH 7.5) with protease inhibitors (Roche). Protein concentration was measured by the BCA assay. For immunoprecipitation, protein extracts were incubated with mag-beads-AS1712 or mag-beads-control at 4° C. overnight and then washed five times with PBS before immunoblotting. For immunoblotting, equivalent amounts of denatured proteins were separated through SDS-PAGE gels and then transferred to PVDF membranes (Millipore), which were each blocked with 5% nonfat milk in PBS and 0.1% Tween-20 (Sigma Aldrich) for 1 h. Then each membrane was incubated with a primary antibody overnight at 4° C., followed by incubation with a horseradish peroxidase conjugated secondary antibody for 1 h at room temperature. The signal was visualized by enhanced chemiluminescence detection, and images were acquired using a BioSpectrum Imaging System (UVP).

[25] = 4 mg/kg intraperitoneally three times a week
[26] = 8 mg/kg intraperitoneally three times a week
[27] = end of experiment, paclitaxel 15 mg/kg, RJ-LC-15-8 8 mg/kg, mean ± SEM

T1 sequence (P02554 whole entry): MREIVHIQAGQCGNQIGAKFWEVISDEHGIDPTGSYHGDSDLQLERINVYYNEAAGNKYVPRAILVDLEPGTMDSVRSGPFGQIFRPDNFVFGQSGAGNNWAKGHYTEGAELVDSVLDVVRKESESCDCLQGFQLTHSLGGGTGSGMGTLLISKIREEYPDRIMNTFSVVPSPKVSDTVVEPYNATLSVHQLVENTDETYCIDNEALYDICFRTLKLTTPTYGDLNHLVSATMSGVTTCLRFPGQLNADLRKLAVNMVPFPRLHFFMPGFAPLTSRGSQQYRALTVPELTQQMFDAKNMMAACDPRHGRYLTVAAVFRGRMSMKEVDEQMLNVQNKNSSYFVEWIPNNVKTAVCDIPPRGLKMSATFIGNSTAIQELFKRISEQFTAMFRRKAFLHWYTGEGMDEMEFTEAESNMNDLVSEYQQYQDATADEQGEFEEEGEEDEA
T1 sequence (P02550 whole entry partner): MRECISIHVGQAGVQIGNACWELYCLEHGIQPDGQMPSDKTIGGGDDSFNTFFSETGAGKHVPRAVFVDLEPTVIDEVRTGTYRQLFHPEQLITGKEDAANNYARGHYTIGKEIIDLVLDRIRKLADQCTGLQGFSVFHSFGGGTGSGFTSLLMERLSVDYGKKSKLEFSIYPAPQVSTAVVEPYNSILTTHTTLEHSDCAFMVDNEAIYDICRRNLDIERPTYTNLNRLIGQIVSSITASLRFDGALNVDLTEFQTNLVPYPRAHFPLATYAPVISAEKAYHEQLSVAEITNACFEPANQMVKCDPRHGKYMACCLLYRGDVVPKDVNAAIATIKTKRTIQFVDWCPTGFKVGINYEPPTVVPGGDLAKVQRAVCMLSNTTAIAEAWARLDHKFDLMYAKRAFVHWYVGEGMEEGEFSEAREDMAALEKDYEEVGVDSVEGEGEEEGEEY
T2 sequence (P08183 whole entry): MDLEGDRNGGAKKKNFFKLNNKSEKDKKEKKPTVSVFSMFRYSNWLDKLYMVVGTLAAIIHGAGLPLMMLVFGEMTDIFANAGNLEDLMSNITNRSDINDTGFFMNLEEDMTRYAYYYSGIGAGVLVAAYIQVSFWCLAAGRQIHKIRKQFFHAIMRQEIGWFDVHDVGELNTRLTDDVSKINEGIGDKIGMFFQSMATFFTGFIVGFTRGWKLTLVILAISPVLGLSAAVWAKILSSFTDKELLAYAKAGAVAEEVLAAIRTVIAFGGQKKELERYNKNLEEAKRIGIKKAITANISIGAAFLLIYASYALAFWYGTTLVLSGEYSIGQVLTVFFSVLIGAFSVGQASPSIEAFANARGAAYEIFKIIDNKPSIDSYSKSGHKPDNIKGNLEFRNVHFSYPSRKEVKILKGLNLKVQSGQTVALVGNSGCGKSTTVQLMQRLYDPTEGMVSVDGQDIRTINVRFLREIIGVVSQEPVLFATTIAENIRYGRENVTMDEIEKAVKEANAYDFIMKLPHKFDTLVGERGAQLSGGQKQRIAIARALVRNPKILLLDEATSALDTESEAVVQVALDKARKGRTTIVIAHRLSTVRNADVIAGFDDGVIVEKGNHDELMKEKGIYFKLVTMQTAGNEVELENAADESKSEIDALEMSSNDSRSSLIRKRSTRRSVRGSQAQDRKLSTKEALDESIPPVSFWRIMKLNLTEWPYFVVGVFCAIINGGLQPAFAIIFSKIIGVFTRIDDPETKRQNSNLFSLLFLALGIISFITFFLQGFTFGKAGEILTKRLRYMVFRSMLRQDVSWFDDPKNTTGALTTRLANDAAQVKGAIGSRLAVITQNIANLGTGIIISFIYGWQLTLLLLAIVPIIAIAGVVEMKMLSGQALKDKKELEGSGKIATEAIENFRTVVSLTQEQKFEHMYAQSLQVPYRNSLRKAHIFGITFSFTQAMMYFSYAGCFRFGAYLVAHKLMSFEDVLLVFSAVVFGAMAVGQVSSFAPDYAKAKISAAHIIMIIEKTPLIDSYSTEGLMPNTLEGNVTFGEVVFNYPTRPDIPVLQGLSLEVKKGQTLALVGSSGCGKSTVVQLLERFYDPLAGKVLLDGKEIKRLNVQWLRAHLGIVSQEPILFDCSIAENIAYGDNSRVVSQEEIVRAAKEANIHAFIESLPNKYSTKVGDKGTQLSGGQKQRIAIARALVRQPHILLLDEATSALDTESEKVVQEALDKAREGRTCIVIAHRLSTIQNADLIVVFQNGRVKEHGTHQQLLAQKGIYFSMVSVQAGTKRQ

In the case of CCOC(=O)c1ccc2[nH]c(-c3cccc(F)c3)cc(=O)c2c1 [RJ-LC-15-8, Ethyl 2-(3-fluorophenyl)-4-oxo-1,4-dihydroquinoline-6-carboxylate], the IC50 ([1]; NCI-H1975, 72 h, H1975 cells, 72 h, MTS) is reported as 24 nM, the IC50 ([1]; NCI-H1975, Table 8, cell line not given, values match H1975) is reported as 24 ± 1 nM and the IC50 [2] is reported as 21 ± 1.14 nM. It also gave an IC50 [3] of 34 ± 4.71 nM, an IC50 [4] of 35 ± 1.45 nM and an IC50 [5] of 22 ± 0.61 nM. For the same molecule, the IC50 [6] was 23 ± 1.27 nM, the IC50 [7] was 34 ± 0.39 nM and the IC50 [8] was 20 ± 1.71 nM. The IC50 [9] was greater than 10000 nM, the IC50 ([10]; Homo sapiens, KBtax, P-gp overexpressing, paclitaxel-selected KB subline) was 30 ± 1.35 nM and the “RF, resistance factor (IC50 in resistant cell line/IC50 in parent cell line)” value (“RF, resistance factor” for short) ([10]; KBtax vs KB) was 0.88. For the same molecule, the IC50 ([11]; Homo sapiens, KBvin, P-gp overexpressing, vincristine-selected KB subline) was 35 ± 0.88 nM, the “RF, resistance factor” value ([11]; KBvin vs KB) was 1 and the “RF, resistance factor” value ([12]; CEM/VBL vs CCRF-CEM) was 0.8. The IC50 ([12]; Homo sapiens, CEM/VBL, P-gp overexpressing, vinblastine-selected CCRF-CEM subline) was 16 ± 0.52 nM, the IC50 [13] was 39 ± 0.49 nM and the “RF, resistance factor” value ([14]; HDQP1/TAX vs HDQP1) was 1.02. It also gave an IC50 ([14]; Homo sapiens, HDQ-P1, Paclitaxel-resistant subline) of 40 ± 3.26 nM, an IC50 [15] of 21 to 35 nM and an average tumor size [16, 25] of 1333±121.9 mm^3. The average tumor size [16, 26] was 972.5±52.3 mm^3, the average tumor size [17, 25] was 105±9.4 mm^3 and the average tumor size [17, 26] was 73.6±8.2 mm^3. For the same molecule, the “TUNEL staining of the tumor tissues” value ([18]; 8 mg/kg, 21 days) was “induced apoptosis”, the average tumor size ([18]; after 21 days, i.p. three times a week, paclitaxel 15 mg/kg, RJ-LC-15-8 8 mg/kg) was 528.4±101.6 mm^3 and the tubulin polymerization [19] was “direct inhibition”. For the same molecule, the P-gp pump activity [20] was “did not directly inhibit”, the body mass [21] was “not affected” and the “Body mass and serum biochemical markers for liver and kidney functions” value ([22]; 8 mg/kg, end of the experiment) was “not negatively affected”. For the same molecule, the “ALT (IU/L)” value [22, 27] was 64 ± 10.8 IU/L, the “AST(IU/L)” value [22, 27] was 120.7 ± 27.5 IU/L and the “BUN” value [22, 27] was 18.2 ± 1 mg/dL. For the same molecule, the “Cre” value [22, 27] was 0.26 ± 0.04 mg/dL, the body mass [23] was “did not affect” and the P-gp expression [24] was “did not affect”.
